Data published in ChEMBL document CHEMBL3508693 (2016).
One block for each compound: values may come before it.

What was measured:
[1] = % aliskiren recovered as M4 in bile following single intravenous administration of 10 mg.Kg-1 [14C] aliskiren hemifumarate in male rat; format: ADME, organism-based, HAN:WIST(SPF); conditions: in vivo
[2] = % of radioactivity recovered as M4 in urine following intravenous administration of [14C] aliskiren hemifumarate at 10 mg.Kg-1 level in rat; format: ADME, organism-based, Albino HAN:WIST; conditions: in vivo
[3] = % aliskiren hemifumarate recovered as M4 in urine following single oral dose of 300 mg [14C]SPP100 studied in healthy men; format: ADME, organism-based; conditions: human, in vivo, at 300 mg
[4] = % aliskiren recovered as M4 in urine following single intravenous administration of 10 mg.Kg-1 [14C] aliskiren hemifumarate in male rat; format: ADME, organism-based, HAN:WIST(SPF); conditions: in vivo
[5] = % aliskiren recovered as M4 in hydrolysed following single intravenous administration of 10 mg.Kg-1 [14C] aliskiren hemifumarate in male rat; format: ADME, organism-based, HAN:WIST(SPF), Bile; conditions: in vivo
[6] = % of radioactivity recovered as M4 in urine following oral administration of [14C] aliskiren hemifumarate at 100 mg.Kg-1 level in rat; format: ADME, organism-based, Albino HAN:WIST; conditions: in vivo
[7] = % aliskiren hemifumarate (0-168h) recovered as M4 in urine following single intravenous dose of [14C] aliskiren hemifumarate at 1 mg.Kg-1 level in marmoset; format: ADME, organism-based, Callithrix jacchus; conditions: in vivo
[8] = % aliskiren hemifumarate (0-168h) recovered as M4 in urine following single oral dose of [14C] aliskiren hemifumarate at 3 mg.Kg-1 level in marmoset; format: ADME, organism-based, Callithrix jacchus; conditions: in vivo
[9] = % of radioactivity recovered as M4 in faeces following intravenous administration of [14C] aliskiren hemifumarate at 10 mg.Kg-1 level in rat; format: ADME, organism-based, Albino HAN:WIST, Feces; conditions: in vivo
[10] = % of radioactivity recovered as M4 in plasma following oral administration of [14C] aliskiren hemifumarate at 100 mg.Kg-1 level in rat; format: ADME, organism-based, Albino HAN:WIST; conditions: in vivo
[11] = % aliskiren hemifumarate (0-72h) recovered as M4 in faeces following single intravenous dose of [14C] aliskiren hemifumarate at 1 mg.Kg-1 level in marmoset; format: ADME, organism-based, Callithrix jacchus, Feces; conditions: in vivo
[12] = % aliskiren recovered as M4 of receiver rat following duodenal infusion of radioactivity through bile from donor rat treated with single intravenous administration of 10 mg.Kg-1 [14C] aliskiren hemifumarate; format: ADME, organism-based, HAN:WIST(SPF); conditions: in vivo
[13] = % aliskiren hemifumarate recovered as M4 in urine and faeces following single oral dose of 300 mg [14C]SPP100 studied in healthy men; format: ADME, organism-based, Urine/Feces; conditions: human, in vivo, at 300 mg
[14] = % of radioactivity recovered as M4 in plasma following intravenous administration of [14C] aliskiren hemifumarate at 10 mg.Kg-1 level in rat; format: ADME, organism-based, Albino HAN:WIST; conditions: in vivo
[15] = % aliskiren hemifumarate recovered as M4 in faeces following single oral dose of 300 mg [14C]SPP100 studied in healthy men; format: ADME, organism-based, Feces; conditions: human, in vivo
[16] = % of radioactivity recovered as M4 in faeces following oral administration of [14C] aliskiren hemifumarate at 100 mg.Kg-1 level in rat; format: ADME, organism-based, Albino HAN:WIST, Feces; conditions: in vivo
[17] = % aliskiren hemifumarate (0-72h) recovered as M4 in faeces following single oral dose of [14C] aliskiren hemifumarate at 3 mg.Kg-1 level in marmoset; format: ADME, organism-based, Callithrix jacchus, Feces; conditions: in vivo
[18] = % aliskiren recovered as M3 in urine following single intravenous administration of 10 mg.Kg-1 [14C] aliskiren hemifumarate in male rat; format: ADME, organism-based, HAN:WIST(SPF); conditions: in vivo
[19] = % of radioactivity recovered as M3 in urine following intravenous administration of [14C] aliskiren hemifumarate at 10 mg.Kg-1 level in rat; format: ADME, organism-based, Albino HAN:WIST; conditions: in vivo
[20] = % aliskiren hemifumarate recovered as M3 in faeces following single oral dose of 300 mg [14C]SPP100 studied in healthy men; format: ADME, organism-based, Feces; conditions: human, in vivo, at 300 mg
[21] = % of radioactivity recovered as M3 in faeces following oral administration of [14C] aliskiren hemifumarate at 100 mg.Kg-1 level in rat; format: ADME, organism-based, Albino HAN:WIST, Feces; conditions: in vivo
[22] = % aliskiren hemifumarate (0-168h) recovered as M3 in urine following single oral dose of [14C] aliskiren hemifumarate at 3 mg.Kg-1 level in marmoset; format: ADME, organism-based, Callithrix jacchus; conditions: in vivo
[23] = % aliskiren hemifumarate (0-72h) recovered as M3 in faeces following single oral dose of [14C] aliskiren hemifumarate at 3 mg.Kg-1 level in marmoset; format: ADME, organism-based, Callithrix jacchus, Feces; conditions: in vivo
[24] = % aliskiren recovered as M3 in bile following single intravenous administration of 10 mg.Kg-1 [14C] aliskiren hemifumarate in male rat; format: ADME, organism-based, HAN:WIST(SPF); conditions: in vivo
[25] = % aliskiren hemifumarate (0-168h) recovered as M3 in urine following single intravenous dose of [14C] aliskiren hemifumarate at 1 mg.Kg-1 level in marmoset; format: ADME, organism-based, Callithrix jacchus; conditions: in vivo
[26] = % aliskiren hemifumarate recovered as M3 in urine and faeces following single oral dose of 300 mg [14C]SPP100 studied in healthy men; format: ADME, organism-based, Urine/Feces; conditions: human, in vivo, at 300 mg
[27] = % aliskiren hemifumarate recovered as M3 in urine following single oral dose of 300 mg [14C]SPP100 studied in healthy men; format: ADME, organism-based; conditions: human, in vivo, at 300 mg
[28] = % of radioactivity recovered as M3 in urine following oral administration of [14C] aliskiren hemifumarate at 100 mg.Kg-1 level in rat; format: ADME, organism-based, Albino HAN:WIST; conditions: in vivo
[29] = % aliskiren recovered as M3 in hydrolysed following single intravenous administration of 10 mg.Kg-1 [14C] aliskiren hemifumarate in male rat; format: ADME, organism-based, HAN:WIST(SPF), Bile; conditions: in vivo
[30] = % aliskiren recovered as M3 of receiver rat following duodenal infusion of radioactivity through bile from donor rat treated with single intravenous administration of 10 mg.Kg-1 [14C] aliskiren hemifumarate; format: ADME, organism-based, HAN:WIST(SPF); conditions: in vivo
[31] = % of radioactivity recovered as M3 in faeces following intravenous administration of [14C] aliskiren hemifumarate at 10 mg.Kg-1 level in rat; format: ADME, organism-based, Albino HAN:WIST, Feces; conditions: in vivo
[32] = % of radioactivity recovered as M3 in plasma following intravenous administration of [14C] aliskiren hemifumarate at 10 mg.Kg-1 level in rat; format: ADME, organism-based, Albino HAN:WIST; conditions: in vivo
[33] = % aliskiren hemifumarate (0-72h) recovered as M3 in faeces following single intravenous dose of [14C] aliskiren hemifumarate at 1 mg.Kg-1 level in marmoset; format: ADME, organism-based, Callithrix jacchus, Feces; conditions: in vivo
[34] = % of radioactivity recovered as M3 in plasma following oral administration of [14C] aliskiren hemifumarate at 100 mg.Kg-1 level in rat; format: ADME, organism-based, Albino HAN:WIST; conditions: in vivo

- Compound recovery [1]: 1.4%
- Compound recovery [3]: < 0.1%
- Compound recovery [4]: 0.9%
- Compound recovery [5]: 4.5%
- Compound recovery [6]: <= 2%
- Compound recovery [7]: 0.1%
- Compound recovery [8]: 0%
- Compound recovery [10]: <= 2%
- Compound recovery [11]: 2%
- Compound recovery [12]: OUTCOME = Not detected
- Compound recovery [13]: < 0.1%
- Compound recovery [15]: OUTCOME = Not detected
- Compound recovery [16]: <= 2%
- Compound recovery [17]: 1%
Compound: COc1ccc(C[C@@H](C[C@H](N)[C@@H](O)C[C@H](C(=O)NCC(C)(C)C(N)=O)C(C)C)C(C)C)cc1O
- Compound recovery [2]: OUTCOME = Not detected or not investigated
- Compound recovery [9]: OUTCOME = Not detected or not investigated
- Compound recovery [14]: OUTCOME = Not detected or not investigated

- Compound recovery [18]: 4.7%
- Compound recovery [19]: <= 2%
- Compound recovery [20]: 0.6%
- Compound recovery [21]: <= 2%
- Compound recovery [22]: 0.1%
- Compound recovery [23]: 2%
- Compound recovery [24]: 15.9%
- Compound recovery [25]: 0.4%
- Compound recovery [26]: < 0.6%
- Compound recovery [27]: < 0.1%
- Compound recovery [28]: <= 2%
- Compound recovery [29]: 15.5%
- Compound recovery [30]: 15.2%
- Compound recovery [31]: > 2%
- Compound recovery [33]: 17%
- Compound recovery [34]: <= 2%
Compound: COc1ccc(C[C@@H](C[C@H](N)[C@@H](O)C[C@H](C(=O)NCC(C)(C)C(N)=O)C(C)C)C(C)C)cc1OCCCO
- Compound recovery [32]: OUTCOME = Not detected or not investigated
